Laboratory results: US20060183773A1, “Uses of methylphenidate derivatives” (priority 2005, published 2006)

Key:
Format in all cases: cell-based, human
STAT4 = experiment: Custom AntibodyArray, TRiPS cells: STAT4; conditions: 15 μg/ml, 30 minutes
Experimental: (§1) Day 18 TRiPS cells, 1×10^6, were incubated for 30 minutes at 37° C., either with nothing added (“Nil”), with 1 μl CD3/CD28 Dynabeads (Dynal, Oslo, Norway) (“CD3/CD28 beads”) per 100,000 cells, or with CD3/CD28 beads and 15 μg/ml of the compound of formula II (Cpd II). After the incubation, the cells were lysed in Cell-Lytic Mammalian Cell Extraction Reagent (Sigma). After centrifugation to pellet cellular debris, the supernatants (cell extracts) were obtained.
(§2) The cell extracts (supernatants) were then analyzed using a Custom AntibodyArray™ manufactured by Hypromatrix Inc., Worcester, Mass., following the manufacturer's instructions. The Custom AntibodyArray™ is a nylon membrane blotted with antibodies to the proteins listed below. Briefly, the cell extracts were incubated with duplicate Custom AntibodyArray™'s for 2 hours at room temperature with slow shaking, followed by three washes with Tris buffer (150 mM NaCl, 25 mM Tris, 0.05% Tween-20, pH 7.5). HRP-labeled antibodies specific for phosphorylated-tyrosine, phosphorylated-serine and phosphorylated-threonine in Tris buffer were added, and the arrays incubated for 2 hours. After three more washes with Tris buffer, a peroxidase-reactive luminescent substrate was added. The arrays were visualized by exposure to X-ray film. Densitometry of the X-ray films was measured by scanning and computer analysis.

TNFα = TNFα release by PBL, ELISA; conditions: donor GR191; 5 μg/ml PHA, 72 h; Cpd II 15 and 50 μg/ml, Dex 10 μM; FIG. 7
Experimental: (§3) After this incubation, PHA was added to give a final concentration of 5 μg/ml, and the cells were incubated for an additional 72 hours at 37° C., 5% CO2. All cultures were performed in triplicate. Cells were then removed by centrifugation at 1000 rpm for 10 minutes.
The TNFα ELISA was performed as described in Example 2 using matched pair antibodies from Pierce Endogen (2 μg/ml for the coating antibody and 250 ng/ml for the second antibody).

MEK1 = experiment: Custom AntibodyArray, TRiPS cells: MEK1; conditions: 15 μg/ml, 30 minutes
Experimental: as §1, §2

TCR-positive cells = experiment: Annexin staining of TCR-positive PBL, flow cytometry (cell death)
Experimental: as §3
The cells were further analyzed by flow cytometry. Annexin was used to determine populations of dead or dying cells. Anti-CD69 antibody was used to establish the level of cellular activation. Antibody to T-cell receptor αβ (TCR) was also used. Recombinant Annexin 5 (PE and FITC conjugates) and the antibodies were all purchase from Caltag (Burlingham, Calif.) and used following the manufacturer's recommendations.

IL-8 = IL-8 release by TNFα-stimulated HUVECs, ELISA; conditions: HUVECs lot 8710, no TNFα, no additives 207.15
[1] = system: peripheral blood lymphocytes (PBL); experiment: Cell clumping of PHA-stimulated PBL (microscopy); conditions: PBL of donor GR283; 5 μg/ml PHA; compound 5, 15, 50 μg/ml; 24 h pre-incubation + 72 h
Experimental: Whole blood was drawn from GR283, a human volunteer with known allergies, into a glass vacutainer tube containing no anticoagulant. This blood was allowed to clot, and the serum was removed by centrifugation and then heat inactivated by placing it in a water bath at 56° C. for 30 minutes. Whole blood from GR283 was also drawn into a glass vacutainer tube containing heparin and used for peripheral blood lymphocytes (PBL) isolation as follows. Whole blood was layered over room temperature Histopaque 1077 solution and centrifuged at 2000 rpm for 15 minutes at room temperature. Cells at the plasma-Histopaque interface were then removed and washed with culture medium (IMDM medium with 10% heat-inactivated GR283 serum plus 1% penicillin/streptomycin) at 37° C.
The compound of formula II (see above) and methylphenidate (both obtained from Dr. Jeffrey D. Winkler, University of Pennsylvania, Philadelphia, Pa.) in culture medium were added to wells of a 96-well plate to give final concentrations of 5 μg/ml, 15 μg/ml and 50 μg/ml of the compound of formula II and of methylphenidate. […] Then, GR283's PBL in culture medium were added to the wells to give a final concentration of 150,000 cells per well, and the plates were incubated at 37° C., 5% CO2 for 24 hours. […]

NFκB = experiment: Activated NFκB in TNFα- or VEGF-treated HIAECs, TransAM assay
Experimental: Then, the amount of NFκB was determined using a TransAM™ NFκB p65/NFκB p50 Transcription Factor Assay Kit and a Nuclear Extract Kit from Active Motif North America, Carlsbad, Calif., according to the manufacturer's instructions. Briefly, a nuclear extract of the cells was prepared using the Nuclear Extract Kit. Then, the nuclear extract was added to the wells of the 96-well plate of the TransAM™ kit. Oligonucleotide containing an NFκB consensus binding site was immobilized in the wells, and the activated NFκB contained in the nuclear extract was bound to the oligonucleotide. Then, an antibody directed against the NFκB p65 or p50 subunit was added, and the NFκB complex bound to the oligonucleotide was detected. A secondary antibody conjugated to horseradish peroxidase (HRP) was next added to provide a colorimetric readout that was quantified by spectrophotometry (measurement at 450 nm).
Passage 8 (human iliac artery endothelial cells (HIAECs) (obtained from ATCC; catalog no. CC-2545) were grown to confluence in 25 cm^2 flasks in EGM-2 medium. Eighteen hours prior to the experiment, the medium was replaced with EGM-2 medium containing 0.1% FCS plus heparin, GA1000 (gentamycin) and bovine pituitary extract (all from Cambrex) to place the cells in a resting state. To perform the experiment the medium was aspirated from the flasks, and the following additives were added to the flasks in fresh medium (total volume of 5 ml/flask): 15 μg/ml of the compound of formula II (Cpd II) or 10 μM LY 294002. The flasks were incubated 2 hours at 37° C., 5% CO2 After this incubation, VEGF or TNFα was added to give a final concentration 10 ng/ml, and the flasks were incubated for an additional 30 minutes. Then, the amount of NFκB was determined using a TransAM™ NFκB p65/NFκB p50 Transcription Factor Assay Kit and a Nuclear Extract Kit from Active Motif North America, Carlsbad, Calif., as described in Example 9.

## COC(=O)C(c1ccc(-c2ccccc2)cc1)C1CCCCN1 (stereo not drawn) [Cpd II]
STAT4
  Effect of Cpd II on the protein in CD3/CD28 stimulated TRiPS cells: Activated
TNFα
  release of TNFα from PHA-stimulated PBL: significantly inhibited the release of TNFα
MEK1
  Effect of Cpd II on the protein in CD3/CD28 stimulated TRiPS cells: Decreased level to below basal levels (Nil control)
TCR-positive cells; 15 μg/ml, no PHA, background 7.3%
  Annexin staining of TCR-positive cells: 23%
TCR-positive cells; 50 μg/ml, no PHA, background 7.3%
  Annexin staining of TCR-positive cells: 45%
TCR-positive cells; PHA 5 μg/ml plus 15 μg/ml, PHA alone 67%
  Annexin staining of TCR-positive cells: 62%
TCR-positive cells; PHA 5 μg/ml plus 50 μg/ml, PHA alone 67%
  Annexin staining of TCR-positive cells: 87%
IL-8; 15 μg/ml
  Mean IL-8: 400.35 pg/mL
IL-8; 30 μg/ml
  Mean IL-8: 0 pg/mL
[1]
  cell clumping induced by PHA: reduced the amount of cell clumping induced by 5 μg/ml PHA in a dose-dependent manner
NFκB; TNFα 10 ng/ml + 15 μg/ml, control 0.174, TNFα only 0.881
  Mean OD 450 nm (NFκB): 0.302 ± 0.003
NFκB; VEGF 10 ng/ml + 15 μg/ml, control 0.174, VEGF only 0.220
  Mean OD 450 nm (NFκB): 0.066 + 0.005
